For data set [1], the system named is human-tumor-transplant mouse models. The conditions noted are these: cited from earlier work.
Data set [2] deals with human-tumor-transplant rat models. The conditions noted are these: cited from earlier work.
In data set [3] the target is T1, human FGFR3 (Homo sapiens, UniProt P22607).
T1 construct: the intracellular domain (448-759 amino acids) of human FGFR3; made in house; host or cells: insect cells (baculovirus)
Put plainly: Fibroblast growth factor receptor 3 (FGFR3) inhibitory activity, time-resolved fluoroimmunoassay. The conditions noted are these: 10 μmol/L test compound. Format: biochemical. The method, then:
In order to determine FGFR3 inhibitory activity, the following method was employed. FGFR3 was prepared by allowing baculovirus that expresses a protein in which glutathione S-transferase (GST) was fused to the N-terminal of the intracellular domain (448-759 amino acids) of human FGFR3 to infect insect cells. Biotinylated polyglutamic acid-tyrosine peptide (Nihon Schering K.K., Catalogue No. 61GT0BAA) used as a substrate was immobilized on a 96-well plate coated with NeutroAvidin (Pierce, Catalogue No. 31000) and was then blocked with 0.25% gelatin to yield a plate for the determination of kinase reaction A solution containing, at final concentrations, 8 μg/L GST-fused FGFR3 protein, 20 mmol/L Tris-Cl (pH 7.5), 0.04% 2-mercaptoethanol, 0.04 mmol/L Na3VO4, 20 mmol/L MgCl2, 5 mmol/L MnCl2, 10 mmol/L ATP, 0.1% bovine serum albumin (BSA; Sigma Corporation, Catalogue No. A4503), 0.1% dimethyl sulfoxide (DMSO), and 10 μmol/L test compound was prepared. Subsequently, 50 μL of the solution was placed in each of the wells of the plate for the determination of kinase reaction, followed by enzymatic reaction at 24° C. for 60 minutes. The plate was washed with TBS-T [10 mM Tris-Cl (pH 7.5), 150 mmol/L NaCl, and 0.05% Tween 20 (Bio-Rad Laboratories Inc., Catalogue No. 170-6531)] four times, and allowed to react with europium-labeled anti-phosphotyrosine antibody (PerkinElmer Inc. Catalogue No. AD0160) at room temperature for 60 minutes. The plate was further washed with TBS-T four times. Subsequently, DELFIA. Enhancement Solution (PerkinElmer Inc. Catalogue No. 1244-105) was added to the plate, and time-resolved fluoroimmunoassay was performed (excitation wavelength: 340 nm, measuring wavelength: 615 nm). The relative activity (%) of a well in which the test compound was added was calculated using the value of a well containing the enzyme and 0.1% DMSO being 100% and the value of a well not containing the enzyme being 0%. The FGFR3 inhibitory activity (%) of the test compound was determined by subtracting the relative activity (%) from 100.

The test system of data set [4] is Aurora. Put plainly: Aurora inhibitory activity using Western blotting method (phosphorylation of histone H3 Ser10). Format: cell-based, human. The conditions noted are these: 10 μmol/L, 30 minutes, HCT116 cells accumulated in M phase with Nocodazole. The text has this:
It is known that Aurora phosphorylates Ser10 of histone H3 in the G2/M phase during the cell cycle [Molecular and Cellular Biology, Vol. 22, p. 874 (2002)]. Consequently, the inhibition of phosphorylation of histone H3 Ser10 in cells was detected by a Western blotting method using human colon cancer cell line HCT116 cells accumulated in the M phase. McCoy's 5A culture medium (GIBCO, Catalogue No. 16600-082) containing 10% bovine fetus serum (GIBCO, Catalogue No. 10099-141) was used for the cultivation of the cells. The HCT116 cells were inoculated and then treated with Nocodazole (Sigma Corporation, Catalogue No. M-1404) so that the cell cycle was accumulated to the M phase. A test compound (final concentration: 10 μmol/L) was added thereto, and the cells were incubated at 37° C. for 30 minutes. The cells were then recovered and washed with a phosphate buffered saline (PBS) once. The cells were suspended in a cell-solubilizing solution (50 mmol/L 2-[4-(2-hydroxyethyl)-1-piperazinyl]ethanesulfonic acid (HEPES) (pH 7.4), 150 mmol/L NaCl, 1 mmol/L ethylenediamine-N,N,N′,N′-tetraacetic acid disodium salt dihydrate (EDTA), 2.5 mmol/L ethylene glycol bis(2-aminoethylether)-N,N,N′,N′-tetraacetic acid (EGTA), 0.1% Tween-20 (Bio-Rad Laboratories Inc., Catalogue No. 170-6531), 10% β-glycerophosphate, 1 mmol/L NaF, 0.1 mmol/L Na3VO4, 1 mmol/L Pefabloc SC (Roche Diagnostics K.K., Catalogue No. 1 429 868), and Complete EDTA-free (Roche Diagnostics K.K., Catalogue No. 1 873 580)}, and the suspension was frozen and thawed. Subsequently, the supernatant obtained by centrifugal separation was used as a cell extraction solution. SDS-PAGE was performed using a 12.5% polyacrylamide gel under the condition that the amount of protein per sample was 30 μg in accordance with the method used by Laemmli et al. The protein was transferred onto a PVDF membrane (Millipore Corporation, Catalogue No. IPVH304F0) by a semi-dry method. The membrane was allowed to react with anti-phosphorylated histone H3 Ser10 antibody (Upstate Inc., Catalogue No. 06-570) used as a primary antibody, and an HRP-labeled anti-rabbit IgG antibody (Amersham biosciences, Catalogue No. NA934V) used as a secondary antibody. Subsequently, […] was detected using a SuperSignal West Pico chemiluminescence substrate (Pierce, Catalogue No. 34077).

Data set [5] relates to HCT116 cells. Nature of the data set: Evaluation of Aurora inhibitory activity by analysis of nuclear morphology (enlarged lobed nuclei). Conditions: concentration in the range of 0.1 to 1 μmol/L, 17 hours contact; optimal concentration different in each compound. Format: cell-based, human. How it is done: 281 (2003)]. Consequently, enlarged lobed nuclei-inducibility of test compounds for HCT116 cells was evaluated. McCoy's 5A culture medium (GIBCO, Catalogue No. 16600-082) containing 10% bovine fetus serum (GIBCO, Catalogue No. 10099-141) was used for the cultivation of the cells. HCT116 cells were inoculated and, 24 hours later, each test compound was added thereto.

Data set [6] deals with T2, Flt-3 (Homo sapiens, UniProt P36888).
T2 construct: His tag; purchased Upstate Inc. 14-500
T2 sequence (P36888 564-993 limits assumed): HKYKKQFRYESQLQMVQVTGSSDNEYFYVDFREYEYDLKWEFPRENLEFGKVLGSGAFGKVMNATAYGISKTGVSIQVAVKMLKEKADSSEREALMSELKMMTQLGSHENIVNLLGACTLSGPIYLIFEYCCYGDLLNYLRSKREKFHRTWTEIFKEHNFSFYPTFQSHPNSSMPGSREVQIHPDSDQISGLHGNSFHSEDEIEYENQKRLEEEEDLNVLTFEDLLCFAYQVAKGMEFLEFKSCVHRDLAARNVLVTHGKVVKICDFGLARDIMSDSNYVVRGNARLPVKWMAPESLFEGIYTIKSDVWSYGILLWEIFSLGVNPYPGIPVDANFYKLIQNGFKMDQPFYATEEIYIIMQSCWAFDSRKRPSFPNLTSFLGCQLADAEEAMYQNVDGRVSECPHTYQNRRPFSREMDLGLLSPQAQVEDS
Nature of the data set: Flt-3 inhibitory activity, time-resolved fluoroimmunoassay. Format: biochemical. The conditions noted are these: 10 μmol/L test compound. How it is done:
Flt-3 inhibitory activity was determined by a method described below.
Biotinylated polyglutamic acid-tyrosine peptide (Nihon Schering K.K., Catalogue No. 61GT0BAA) used as a substrate was immobilized on a 96-well plate (FIA-PLATE BLACK 96 well FALT-BOTTOM HIGH BINDING, Greiner Bio-one Co., Ltd., Catalogue No. 655077) coated with NeutroAvidin (Pierce, Catalogue No. 31000) and was then blocked with 0.25% gelatin to yield a plate for the determination of kinase reaction. A solution containing, at final concentrations, 8 μg/L His-tagged protein-fused Flt-3 (Upstate Inc., Catalogue No. 14-500), 20 mmol/L Tris-Cl (pH 7.5), 0.04% 2-mercaptoethanol, 0.04 mmol/L Na3VO4, 20 mmol/L MgCl2, 5 mmol/L MnCl2, 10 μmol/L ATP, 0.1% BSA, 0.1% DMSO, and […] test compound was prepared. Subsequently, 50 μL of the solution was placed in each of the wells of the plate for the determination of kinase reaction, followed by enzymatic reaction at 24° C. for 60 minutes. The plate was washed with TBS-T [10 mmol/L Tris-Cl (pH 7.5), 150 mmol/L NaCl, and 0.05% Tween 20 (Bio-Rad Laboratories Inc., Catalogue No. 170-6531)] four times, and allowed to react with europium-labeled anti-phosphotyrosine antibody (PerkinElmer Inc. Catalogue No. AD0160) at room temperature for 60 minutes. The plate was further washed with TBS-T four times. Subsequently, time-resolved fluoroimmunoassay was performed (excitation wavelength: 340 nm, measuring wavelength: 615 nm). The relative activity (%) of a well to which the enzyme and the test compound were added was calculated using the value of a well to which the test compound was not added being 100% and the value of a well to which the enzyme and the test compound were not added being 0%. The Flt-3 inhibitory activity (%) of the test compound was determined by subtracting the relative activity (%) from 100.

Each structure is given as a SMILES string.

T1 sequence (P22607 448-759): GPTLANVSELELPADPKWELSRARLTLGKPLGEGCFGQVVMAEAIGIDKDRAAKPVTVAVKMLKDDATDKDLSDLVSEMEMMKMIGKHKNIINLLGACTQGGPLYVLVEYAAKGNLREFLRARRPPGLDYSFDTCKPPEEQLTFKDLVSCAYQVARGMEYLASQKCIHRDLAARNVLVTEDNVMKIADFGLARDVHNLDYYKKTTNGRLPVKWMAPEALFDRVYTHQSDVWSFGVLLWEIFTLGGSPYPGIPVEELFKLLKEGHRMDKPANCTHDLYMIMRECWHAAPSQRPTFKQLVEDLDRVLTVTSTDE

As for `Nc1nc(Nc2ccc(S(N)(=O)=O)cc2)nn1C(=O)c1c(F)cccc1F` [JNJ-7706621], the antitumor activity entry in data set [1] is recorded as “exhibits an antitumor activity”.
Regarding `Cc1cc(Nc2cc(N3CCN(C)CC3)nc(Sc3ccc(NC(=O)C4CC4)cc3)n2)n[nH]1` [VX-680], the antitumor activity result in data set [1] and in data set [2] was “exhibits an antitumor activity” throughout.
Broadly, the inhibition is the change of the read-out against control, counted positive when it falls. Lower therefore signals a response near the control. The term melting point denotes the temperature of the solid-liquid transition. The compound `COc1cc(-c2cc3cc(CN4CCCC4)ccc3[nH]2)c2c(c1OS(C)(=O)=O)CNC2=O` [Compound 366, 4-Methanesulfonyloxy-5-methoxy-7-[1H-5-(pyrrolidin-1-ylmethyl)indol-2-yl]isoindolinone] gave a melting point of 187 to 189 °C. This compound came in with an inhibition at 10 µM in data set [3] of no less than 50%. Moreover, in data set [4], the “suppression of the phosphorylation of histone H3 Ser10 in HCT116 cells” value is “almost completely suppressed”. Also, the “ability of inducing enlarged lobed nuclei for HCT116 cells” value in data set [5] is “show ability of inducing enlarged lobed nuclei”. The compound further gave an inhibition at 10 µM in data set [6] of no less than 50%.
